Test results as given in the supplement of paper PMC10307832.

Key:
Assay in all cases: relative viability (nuclei count vs DMSO), 5 days (fraction); higher = more cells survive
A549 = system: A549
How it was run: (§1)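 Each reported value is a median over duplicate plates. It expresses relative viability: treated-well nuclei count divided by vehicle-well nuclei count. Lung cancer cell lines in 1536-well plates were dosed by pin tool a day after seeding, alone with one drug or with a fixed anchor-drug dose plus five library-drug doses (not always all listed) in √10 steps, and nuclei were counted after 5 days.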

Calu-6 = system: Calu-6
How it was run: as §1

ChaGo-K-1 = system: ChaGo-K-1
How it was run: as §1

EBC-1 = system: EBC-1
How it was run: as §1

EKVX = system: EKVX
How it was run: as §1

IA-LM = system: IA-LM
How it was run: as §1

LC-2-ad = system: LC-2-ad
How it was run: as §1

NCI-H1299 = system: NCI-H1299
How it was run: as §1

NCI-H1648 = system: NCI-H1648
How it was run: as §1

NCI-H1666 = system: NCI-H1666
How it was run: as §1

NCI-H1703 = system: NCI-H1703
How it was run: as §1

NCI-H1623 = system: NCI-H1623
How it was run: as §1

Cc1cn(-c2cc(NC(=O)c3ccc(C)c(Nc4nccc(-c5cccnc5)n4)c3)cc(C(F)(F)F)c2)cn1 [Nilotinib] + O=C(c1cc(Cc2n[nH]c(=O)c3ccccc23)ccc1F)N1CCN(C(=O)C2CC2)CC1 [Olaparib] (partner 8 µM)
relative viability (A549; first compound 0.001 µM): 0.249 | relative viability (A549; first compound 0.003162 µM): 0.377 | relative viability (A549; first compound 0.01 µM): 0.334 | relative viability (A549; first compound 0.03162 µM): 0.241 | relative viability (A549; first compound 0.1 µM): 0.117 | relative viability (Calu-6; first compound 0.001 µM): 0.525 | relative viability (Calu-6; first compound 0.003162 µM): 0.693 | relative viability (Calu-6; first compound 0.01 µM): 0.583 | relative viability (Calu-6; first compound 0.03162 µM): 0.409 | relative viability (Calu-6; first compound 0.1 µM): 0.494 | relative viability (ChaGo-K-1; first compound 0.001 µM): 0.419 | relative viability (ChaGo-K-1; first compound 0.003162 µM): 0.476 | relative viability (ChaGo-K-1; first compound 0.01 µM): 0.478 | relative viability (ChaGo-K-1; first compound 0.03162 µM): 0.464 | relative viability (ChaGo-K-1; first compound 0.1 µM): 0.412 | relative viability (EBC-1; first compound 0.001 µM): 0.67 | relative viability (EBC-1; first compound 0.003162 µM): 0.804 | relative viability (EBC-1; first compound 0.01 µM): 0.755 | relative viability (EBC-1; first compound 0.03162 µM): 0.661 | relative viability (EBC-1; first compound 0.1 µM): 0.631 | relative viability (EKVX; first compound 0.001 µM): 0.735 | relative viability (EKVX; first compound 0.003162 µM): 1.08 | relative viability (EKVX; first compound 0.01 µM): 1.23 | relative viability (EKVX; first compound 0.03162 µM): 0.834 | relative viability (EKVX; first compound 0.1 µM): 1.07 | relative viability (IA-LM; first compound 0.001 µM): 0.659 | relative viability (IA-LM; first compound 0.003162 µM): 0.864 | relative viability (IA-LM; first compound 0.01 µM): 0.758 | relative viability (IA-LM; first compound 0.03162 µM): 0.664 | relative viability (IA-LM; first compound 0.1 µM): 0.777 | relative viability (LC-2-ad; first compound 0.001 µM): 0.686 | relative viability (LC-2-ad; first compound 0.003162 µM): 0.755 | relative viability (LC-2-ad; first compound 0.01 µM): 0.689 | relative viability (LC-2-ad; first compound 0.03162 µM): 0.874 | relative viability (LC-2-ad; first compound 0.1 µM): 0.594 | relative viability (NCI-H1299; first compound 0.001 µM): 0.886 | relative viability (NCI-H1299; first compound 0.003162 µM): 1.01 | relative viability (NCI-H1299; first compound 0.01 µM): 0.985 | relative viability (NCI-H1299; first compound 0.03162 µM): 0.948 | relative viability (NCI-H1299; first compound 0.1 µM): 0.664 | relative viability (NCI-H1648; first compound 0.001 µM): 0.577 | relative viability (NCI-H1648; first compound 0.003162 µM): 0.909 | relative viability (NCI-H1648; first compound 0.01 µM): 0.903 | relative viability (NCI-H1648; first compound 0.03162 µM): 0.621 | relative viability (NCI-H1648; first compound 0.1 µM): 0.893 | relative viability (NCI-H1666; first compound 0.001 µM): 0.71 | relative viability (NCI-H1666; first compound 0.003162 µM): 0.805 | relative viability (NCI-H1666; first compound 0.01 µM): 0.803 | relative viability (NCI-H1666; first compound 0.03162 µM): 0.778 | relative viability (NCI-H1666; first compound 0.1 µM): 0.754 | relative viability (NCI-H1703; first compound 0.001 µM): 0.302 | relative viability (NCI-H1703; first compound 0.003162 µM): 0.201 | relative viability (NCI-H1703; first compound 0.01 µM): 0.234 | relative viability (NCI-H1703; first compound 0.03162 µM): 0.174 | relative viability (NCI-H1703; first compound 0.1 µM): 0.212

Cc1csc(=NC2CCCCC2)n1/N=C/c1ccc(O)c(O)c1O [MIM1] + CCNC(=O)c1noc(-c2cc(C(C)C)c(O)cc2O)c1-c1ccc(CN2CCOCC2)cc1 [Luminespib] (partner 0.01 µM)
relative viability (ChaGo-K-1; first compound 0.2 µM): 0.559 | relative viability (ChaGo-K-1; first compound 0.6325 µM): 0.735 | relative viability (ChaGo-K-1; first compound 2 µM): 0.473 | relative viability (ChaGo-K-1; first compound 6.325 µM): 0.323 | relative viability (ChaGo-K-1; first compound 20 µM): 0.158 | relative viability (EKVX; first compound 0.2 µM): 0.863 | relative viability (EKVX; first compound 0.6325 µM): 0.766 | relative viability (EKVX; first compound 2 µM): 0.832 | relative viability (EKVX; first compound 6.325 µM): 0.701 | relative viability (EKVX; first compound 20 µM): 0.617 | relative viability (LC-2-ad; first compound 0.2 µM): 1.06 | relative viability (LC-2-ad; first compound 0.6325 µM): 0.964 | relative viability (LC-2-ad; first compound 2 µM): 0.727 | relative viability (LC-2-ad; first compound 6.325 µM): 0.485 | relative viability (LC-2-ad; first compound 20 µM): 0.233 | relative viability (NCI-H1623; first compound 0.2 µM): 0.522 | relative viability (NCI-H1623; first compound 0.6325 µM): 0.472 | relative viability (NCI-H1623; first compound 2 µM): 0.437 | relative viability (NCI-H1623; first compound 6.325 µM): 0.446 | relative viability (NCI-H1623; first compound 20 µM): 0.404 | relative viability (NCI-H1666; first compound 0.2 µM): 1.02 | relative viability (NCI-H1666; first compound 0.6325 µM): 1.13 | relative viability (NCI-H1666; first compound 2 µM): 1.02 | relative viability (NCI-H1666; first compound 6.325 µM): 0.884 | relative viability (NCI-H1666; first compound 20 µM): 0.767

CCNC(=O)c1noc(-c2cc(C(C)C)c(O)cc2O)c1-c1ccc(CN2CCOCC2)cc1 [Luminespib] + Cc1nc(Nc2ncc(C(=O)Nc3c(C)cccc3Cl)s2)cc(N2CCN(CCO)CC2)n1 [Dasatinib] (partner 0.075 µM)
relative viability (ChaGo-K-1; first compound 0.002 µM): 0.634 | relative viability (ChaGo-K-1; first compound 0.006325 µM): 0.648 | relative viability (ChaGo-K-1; first compound 0.02 µM): 0.539 | relative viability (ChaGo-K-1; first compound 0.06325 µM): 0.376 | relative viability (ChaGo-K-1; first compound 0.2 µM): 0.143 | relative viability (EKVX; first compound 0.002 µM): 0.311 | relative viability (EKVX; first compound 0.006325 µM): 0.509 | relative viability (EKVX; first compound 0.02 µM): 0.403 | relative viability (EKVX; first compound 0.06325 µM): 0.515 | relative viability (EKVX; first compound 0.2 µM): 0.393 | relative viability (LC-2-ad; first compound 0.002 µM): 0.583 | relative viability (LC-2-ad; first compound 0.006325 µM): 0.567 | relative viability (LC-2-ad; first compound 0.02 µM): 0.447 | relative viability (LC-2-ad; first compound 0.06325 µM): 0.142 | relative viability (LC-2-ad; first compound 0.2 µM): 0.16 | relative viability (NCI-H1623; first compound 0.002 µM): 0.525 | relative viability (NCI-H1623; first compound 0.006325 µM): 0.384 | relative viability (NCI-H1623; first compound 0.02 µM): 0.416 | relative viability (NCI-H1623; first compound 0.06325 µM): 0.506 | relative viability (NCI-H1623; first compound 0.2 µM): 0.406 | relative viability (NCI-H1666; first compound 0.002 µM): 0.873 | relative viability (NCI-H1666; first compound 0.006325 µM): 0.711 | relative viability (NCI-H1666; first compound 0.02 µM): 0.904 | relative viability (NCI-H1666; first compound 0.06325 µM): 0.85 | relative viability (NCI-H1666; first compound 0.2 µM): 0.748
